Legend:
[1] = test system: RPMI-8226; assay: Anticancer activity, SRB assay, leukemia cell line RPMI-8226; type: cell-based; settings: Homo sapiens; Leukemia RPMI-8226; 48 h continuous drug exposure; read-out: Growth Inhibition GI50
Method: (§1) Some of biological activity studies were carried out at the National Cancer Institute (NCI), Maryland, USA.
(§2) The compounds were evaluated for anticancer activity against sixty human cancer cells derived from nine cancer types (leukemia cell line, non-small-cell lung cell line, colon cell line, CNS cell line, melanoma cell line, ovarian cell line, prostate cell line, renal cell line and breast cancer cell line) as shown in Table 1. For each compound, dose response curves for each cell line were measured at a minimum of five concentrations at 10 fold dilutions. A protocol of 48 h continuous drug exposure was used and a sulforhodamine B (SRB) protein assay was used to estimate cell viability or growth.

[2] = test system: COLO 205; assay: Anticancer activity, SRB assay, colon cell line COLO 205; type: cell-based; settings: Homo sapiens; Colon COLO 205; 48 h continuous drug exposure; read-out: Growth Inhibition GI50
Method: as §1, §2

[3] = test system: K-562; assay: Anticancer activity, SRB assay, leukemia cell line K-562; type: cell-based; settings: Homo sapiens, K562; Leukemia K-562; 48 h continuous drug exposure; read-out: Growth Inhibition GI50
Method: as §1, §2

[4] = test system: M14; assay: Anticancer activity, SRB assay, melanoma cell line M14; type: cell-based; settings: Homo sapiens, 48 h continuous drug exposure, read-out: Growth Inhibition GI50
Method: as §1, §2

[5] = test system: U251; assay: Anticancer activity, SRB assay, CNS cell line U251; type: cell-based; settings: Homo sapiens, U-251, 48 h continuous drug exposure, read-out: Growth Inhibition GI50
Method: as §1, §2

[6] = test system: MDA-MB-468; assay: Anticancer activity, SRB assay, breast cell line MDA-MB-468; type: cell-based; settings: Homo sapiens; Breast MDA-MB-468; 48 h continuous drug exposure; read-out: Growth Inhibition GI50
Method: as §1, §2

[7] = test system: OVCAR-8; assay: Anticancer activity, SRB assay, ovarian cell line OVCAR-8; type: cell-based, human; settings: Ovarian OVCAR-8, 48 h continuous drug exposure, —^b means GI50 values not attained at the concentrations used
Method: as §1, §2

[8] = test system: DU-145; assay: Anticancer activity, SRB assay, prostate cell line DU-145; type: cell-based, human; settings: Prostate DU-145, 48 h continuous drug exposure, —^b means GI50 values not attained at the concentrations used
Method: as §1, §2

[9] = test system: six breast cancer cell line (MCF-7, MDA-MB-231/ATCC, HS 578T, TD-47D, MDA-MB-468 and BT-549); assay: Anticancer activity, SRB assay, breast panel; type: cell-based, human; settings: for mean graph midpoint values (MG_MID) of log10 TGI (Log10TGI50) / mean graph midpoint values (MG_MID) of Log10LC50 / mean graph midpoint values (MG_MID) of Log10GI50: Breast; for mean graph midpoint values (MG_MID) of log10 TGI (Log10TGI50): log value of concentration of the compound resulting in total inhibition of net cell growth; for mean graph midpoint values (MG_MID) of Log10LC50: log value of the concentration of compounds leading to 50% net cell death; for mean graph midpoint values (MG_MID) of Log10GI50: log values of concentration in mol/L causing 50% inhibition of net cell growth; for GI50: Homo sapiens, six breast cancer cell line, exposure period of at least 48 h, read-out: GI50 (range over the panel)
Method: as §1, §2

[10] = test system: T-47D; assay: Anticancer activity, SRB assay, breast cell line T-47D; type: cell-based, human; settings: Breast T-47D, 48 h continuous drug exposure, —^b means GI50 values not attained at the concentrations used
Method: as §1, §2

[11] = test system: CCRF-CEM; assay: Anticancer activity, SRB assay, leukemia cell line CCRF-CEM; type: cell-based, human; settings: 48 h continuous drug exposure, —^b means GI50 values not attained at the concentrations used
Method: as §1, §2

[12] = test system: NCI-H460; assay: Anticancer activity, SRB assay, non-small lung cell line NCI-H460; type: cell-based; settings: Homo sapiens, Non-small lung NCl-H460, 48 h continuous drug exposure, read-out: Growth Inhibition GI50
Method: as §1, §2

[13] = test system: SNB-75; assay: Anticancer activity, SRB assay, CNS cell line SNB-75; type: cell-based, human; settings: CNS SNB-75, 48 h continuous drug exposure, —^b means GI50 values not attained at the concentrations used
Method: as §1, §2

[14] = test system: two prostate cancer cell line (PC-3, DU-145); assay: Anticancer activity, SRB assay, prostate panel; type: cell-based, human; settings: for mean graph midpoint values (MG_MID) of log10 TGI (Log10TGI50) / mean graph midpoint values (MG_MID) of Log10LC50 / mean graph midpoint values (MG_MID) of Log10GI50: Prostate; for mean graph midpoint values (MG_MID) of log10 TGI (Log10TGI50): log value of concentration of the compound resulting in total inhibition of net cell growth; for mean graph midpoint values (MG_MID) of Log10LC50: log value of the concentration of compounds leading to 50% net cell death; for mean graph midpoint values (MG_MID) of Log10GI50: log values of concentration in mol/L causing 50% inhibition of net cell growth
Method: as §1, §2

[15] = Anticancer activity, SRB assay, melanoma panel; type: cell-based, human; settings: Homo sapiens; nine melanoma cancer cell line; exposure period of at least 48 h; read-out: GI50 (range over the panel)
Method: as §1, §2

[16] = test system: nine melanoma cancer cell line (LOX IMVI, MALME-3M, M14, MDA-MB-435, SK-MEL-2, SK-MEL-28, SK-MEL-5, UACC-257 and UACC-62); assay: Anticancer activity, SRB assay, melanoma panel; type: cell-based, human; settings: Melanoma; for mean graph midpoint values (MG_MID) of log10 TGI (Log10TGI50): log value of concentration of the compound resulting in total inhibition of net cell growth; for mean graph midpoint values (MG_MID) of Log10LC50: log value of the concentration of compounds leading to 50% net cell death; for mean graph midpoint values (MG_MID) of Log10GI50: log values of concentration in mol/L causing 50% inhibition of net cell growth
Method: as §1, §2

[17] = test system: IGROV1; assay: Anticancer activity, SRB assay, ovarian cell line IGROV1; type: cell-based, human; settings: —^b means GI50 values not attained at the concentrations used
Method: as §1, §2

[18] = test system: TK-10; assay: Anticancer activity, SRB assay, renal cell line TK-10; type: cell-based, human; settings: Renal TK-10, 48 h continuous drug exposure, —^b means GI50 values not attained at the concentrations used
Method: as §1, §2

[19] = test system: SF-268; assay: Anticancer activity, SRB assay, CNS cell line SF-268; type: cell-based, human; settings: CNS SF-268, 48 h continuous drug exposure, —^b means GI50 values not attained at the concentrations used
Method: as §1, §2

[20] = test system: OVCAR-3; assay: Anticancer activity, SRB assay, ovarian cell line OVCAR-3; type: cell-based; settings: Homo sapiens; Ovarian OVCAR-3; 48 h continuous drug exposure; read-out: Growth Inhibition GI50
Method: as §1, §2

[21] = test system: NCI-H522; assay: Anticancer activity, SRB assay, non-small lung cell line NCI-H522; type: cell-based, human; settings: Non-small lung NCl-H522, 48 h continuous drug exposure, —^b means GI50 values not attained at the concentrations used
Method: as §1, §2

[22] = test system: PC-3; assay: Anticancer activity, SRB assay, prostate cell line PC-3; type: cell-based, human; settings: Prostate PC-3, 48 h continuous drug exposure, —^b means GI50 values not attained at the concentrations used
Method: as §1, §2

[23] = test system: MOLT-4; assay: Anticancer activity, SRB assay, leukemia cell line MOLT-4; type: cell-based; settings: Homo sapiens; Leukemia MOLT-4; 48 h continuous drug exposure; read-out: Growth Inhibition GI50
Method: as §1, §2

[24] = test system: ACHN; assay: Anticancer activity, SRB assay, renal cell line ACHN; type: cell-based, human; settings: 48 h continuous drug exposure, —^b means GI50 values not attained at the concentrations used
Method: as §1, §2

[25] = test system: A498; assay: Anticancer activity, SRB assay, renal cell line A498; type: cell-based, human; settings: 48 h continuous drug exposure, —^b means GI50 values not attained at the concentrations used
Method: as §1, §2

[26] = test system: NCI-H322M; assay: Anticancer activity, SRB assay, non-small lung cell line NCI-H322M; type: cell-based, human; settings: Non-small lung NCl-H322M, 48 h continuous drug exposure, —^b means GI50 values not attained at the concentrations used
Method: as §1, §2

[27] = test system: NCI/ADR-RES; assay: Anticancer activity, SRB assay, ovarian cell line NCI/ADR-RES; type: cell-based, human; settings: Ovarian NCl/ADR-RES, 48 h continuous drug exposure, —^b means GI50 values not attained at the concentrations used
Method: as §1, §2

[28] = test system: EKVX; assay: Anticancer activity, SRB assay, non-small lung cell line EKVX; type: cell-based; settings: Homo sapiens, 48 h continuous drug exposure, read-out: Growth Inhibition GI50
Method: as §1, §2

[29] = Homo sapiens, read-out: Growth Inhibition GI50

Structure (SMILES)	GI50 [1] [nM]	GI50 [2] [µM]	GI50 [3] [nM]	GI50 [4] [µM]	GI50 [5] [µM]	GI50 [6] [nM]	mean graph midpoint values (MG_MID) of log10 TGI (Log10TGI50) [9]	mean graph midpoint values (MG_MID) of Log10LC50 [9]	mean graph midpoint values (MG_MID) of Log10GI50 [9] [mol/L]	GI50 [9] [nM]	GI50 [12] [nM]	mean graph midpoint values (MG_MID) of log10 TGI (Log10TGI50) [14]	mean graph midpoint values (MG_MID) of Log10LC50 [14]	mean graph midpoint values (MG_MID) of Log10GI50 [14] [mol/L]	GI50 [15] [nM]	mean graph midpoint values (MG_MID) of log10 TGI (Log10TGI50) [16]	mean graph midpoint values (MG_MID) of Log10LC50 [16]	mean graph midpoint values (MG_MID) of Log10GI50 [16] [mol/L]	GI50 [20] [µM]	GI50 [23] [nM]	other results
Cc1cc(C#Cc2ccccc2)ccc1-n1c(/C=C/c2cc(O)ccc2O)nc2ccccc2c1=O [Compound 4c, (E)-2-(2,5-Dihydroxystyryl)-3-(2-methyl-4-(phenylethynyl)phenyl)quinazolin-4(3H)-one]	1260	1.48	1420	1.54	1.45	1610	−5.39	−4.66	−5.84	1140 to 1610	1570	−5.43	−4.68	−6.17	1350 to 1670	−5.52	−5.22	−5.83	1.49	1140	GI50 [7, 29]: 1940 nM; GI50 [8, 29]: 419 nM; GI50 ([10]; Homo sapiens, T47D, read-out: Growth Inhibition GI50): 1140 nM; GI50 [11, 29]: 1540 nM; GI50 [13, 29]: 1300 nM; GI50 ([14]; Homo sapiens, DU-145, two prostate cancer cell line, exposure period of at least 48 h, read-out: GI50 (range over the panel)): 419 to 2190 nM; GI50 ([17]; Homo sapiens, IGROV-1, 48 h continuous drug exposure, read-out: Growth Inhibition GI50): 2450 nM; GI50 [18, 29]: 2030 nM; GI50 [19, 29]: 1310 nM; GI50 ([21]; Homo sapiens, NCI-H522, read-out: Growth Inhibition GI50): 1290 nM; GI50 [22, 29]: 2190 nM; GI50 [24, 29]: 1440 nM; GI50 [25, 29]: 370 nM; GI50 ([26]; Homo sapiens, NCI-H322M, read-out: Growth Inhibition GI50): 1620 nM; GI50 ([27]; Homo sapiens, NCI/ADR-RES, read-out: Growth Inhibition GI50): 2060 nM; GI50 [28]: 1.24 µM
COc1ccc2cc(C#Cc3ccc(-n4c(/C=C/c5cc(OC)c(OC)c(OC)c5)nc5ccccc5c4=O)c(C)c3)ccc2c1 [Compound 6l, (E)-3-(4-((6-Methoxynaphthalen-2-yl)ethynyl)-2-methylphenyl)-2-(3,4,5-trimethoxystyryl)quinazolin-4(3H)-one]	821	6.96	882	12.7	7.4	3800	>−4.00	>−4.00	−4.51	3800 to 63800	2480	>−4.00	>−4.00	−4.00	1850 to 42600	>−4.00	>−4.00	−4.79	19.3	4660	Growth Inhibition GI50 [7]: —^b; Growth Inhibition GI50 [8]: —^b; Growth Inhibition GI50 [10]: —^b; Growth Inhibition GI50 [11]: —^b; Growth Inhibition GI50 [13]: —^b; Growth Inhibition GI50 ([17]; 48 h continuous drug exposure): —^b; Growth Inhibition GI50 [18]: —^b; Growth Inhibition GI50 [19]: —^b; Growth Inhibition GI50 [21]: —^b; Growth Inhibition GI50 [22]: —^b; Growth Inhibition GI50 [24]: —^b; Growth Inhibition GI50 [25]: —^b; Growth Inhibition GI50 [26]: —^b; Growth Inhibition GI50 [27]: —^b; GI50 [28]: 24.1 µM

Reference: patent US8680272B2, “3-arylethynyl substituted quinazolinone compounds” (Council of Scientific & Industrial Research, priority 2011, dated 2014)
